Results published in patent US4435426A, “Ethers of phenol active on the cardiovascular system, process for preparing same and use thereof in drugs” (Societe Anonyme dite: Sanofi, priority 1981, dated 1984).

Columns and labels:
[1] = molecular target: T1, adrenergic β receptors (β2) (Canis lupus familiaris, UniProt P54833); assay: Antagonism of the effects of isoprenaline: hypertension (so in the source) (β2), anaesthetized dog, intravenous; format: in vivo; conditions: 50% inhibition of hypertension (β2) induced by intravenous isoprenaline, i.v., read-out: ID 50 isoprenaline β2
T1 construct: from tissue; host or cells: whole anaesthetized dog (in vivo, systemic arterial pressure)
Description: (§1) The dog is anaesthetized with sodium pentobarbital administered intravenously at the dose of 30 mg/kg. A canula placed in the short saphenous vein allows the products to be injected intravenously. The animal is intubed and breathes spontaneously.
(§2) The cardiac frequency and the systemic arterial pressure are studied and the variations of these parameters are observed after intravenous injection of the product to be tested, each product being injected at increasing doses.
(§3) The antagonism of the products vis-a-vis the β stimulant cardiovascular effects of isoprenaline on the adrenergic β receptors was sought. The results are shown in Table below and expressed in ID 50: this is the dose expressed in mg/kg which provokes 50% inhibition of tachycardia (β1) and of hypertension (β2) induced by the isoprenaline administered by intravenous route.

[2] = molecular target: T2, adrenergic β receptors (β1) (Canis lupus familiaris, UniProt P79148); assay: Antagonism of the effects of isoprenaline: tachycardia (β1), anaesthetized dog, intravenous; format: in vivo; conditions: 50% inhibition of tachycardia (β1) induced by intravenous isoprenaline, i.v., read-out: ID 50 isoprenaline β1
T2 construct: The dog is anaesthetized with sodium pentobarbital; from tissue; host or cells: whole anaesthetized dog (in vivo, heart rate)
Description: as §1, §2, §3

T1 sequence (P54833 whole entry): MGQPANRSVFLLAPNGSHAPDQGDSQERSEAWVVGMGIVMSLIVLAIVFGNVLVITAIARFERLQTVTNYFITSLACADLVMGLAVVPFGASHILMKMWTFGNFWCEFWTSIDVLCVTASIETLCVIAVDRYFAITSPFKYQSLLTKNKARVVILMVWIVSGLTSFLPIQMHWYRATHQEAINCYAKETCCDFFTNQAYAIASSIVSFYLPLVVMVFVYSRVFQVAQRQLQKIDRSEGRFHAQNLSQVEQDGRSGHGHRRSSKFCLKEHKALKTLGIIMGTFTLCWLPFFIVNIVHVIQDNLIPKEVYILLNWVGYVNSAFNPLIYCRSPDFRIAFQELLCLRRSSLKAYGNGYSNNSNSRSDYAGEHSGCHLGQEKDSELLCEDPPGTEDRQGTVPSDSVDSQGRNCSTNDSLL
T2 sequence (P79148 whole entry): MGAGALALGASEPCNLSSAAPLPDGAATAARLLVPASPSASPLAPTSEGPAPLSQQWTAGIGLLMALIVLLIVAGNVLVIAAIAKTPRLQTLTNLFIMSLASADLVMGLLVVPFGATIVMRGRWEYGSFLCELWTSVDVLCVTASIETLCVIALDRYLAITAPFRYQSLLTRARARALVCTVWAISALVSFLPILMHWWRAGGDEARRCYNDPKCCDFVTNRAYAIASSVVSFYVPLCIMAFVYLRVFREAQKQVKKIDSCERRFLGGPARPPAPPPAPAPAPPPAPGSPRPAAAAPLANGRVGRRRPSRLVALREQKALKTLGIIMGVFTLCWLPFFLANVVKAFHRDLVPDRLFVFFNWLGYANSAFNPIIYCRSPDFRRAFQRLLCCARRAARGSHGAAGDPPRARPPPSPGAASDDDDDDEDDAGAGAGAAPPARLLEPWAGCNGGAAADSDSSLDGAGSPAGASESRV

| ED50 [1] | ED50 [2] | SMILES |
| --- | --- | --- |
| 0.03 mg/kg | – | CC(C)(C)NCC(O)COc1cccc2c1C(=O)CCC2 (centres unmarked) [compound 7285, 1-(8-oxo 5,6,7,8-tetrahydro 1-naphthyloxy) 2-hydroxy 3-tertiobutylamino propane] |
| 0.01 mg/kg | 0.1 mg/kg | Cc1ccc(OCC(O)CNC(C)(C)C)c2c1CCCC2=O (centres unmarked) [compound 7706] |
| 0.03 mg/kg | 0.1 mg/kg | C#CC(C)(C)NCC(O)COc1ccc(C)c2c1C(=O)CCC2 (centres unmarked) [compound 7760] |
